These results are taken from patent US20230114241A1, “METHODS OF TREATING EPILEPSY USING THE SAME” (Trevena, Inc., priority 2019, published 2023).

In assay [1] the target is T1, human sphingosine-1-phosphate receptor 1 (S1P1) (Homo sapiens, UniProt P21453). In words: β-Arrestin2 recruitment assay (PathHunter), S1P1 CHO-K1 cells. In kind it is cell-based. The conditions noted are these: for Emax: efficacy normalized to maximum efficacy of fingolimod, read-out: hS1P1 B-arrestin2 SPAN; for EC50: β-arrestin2 recruitment, read-out: hS1P1 B-arrestin2 pEC50 (converted). In outline: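 CHO-K1 cells co-expressing EA-β-arrestin2 and ProLink-tagged human S1P1 plated overnight, then stimulated 60 min at 37 °C. Enzyme-fragment complementation (β-galactosidase) detected after 1 h at room temperature by luminescence; values normalized to fingolimod.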
(Arrestin recruitment assays detect the binding of arrestin to an activated receptor.)
Target sequence in this assay (P21453 whole entry, the tested form may be a part): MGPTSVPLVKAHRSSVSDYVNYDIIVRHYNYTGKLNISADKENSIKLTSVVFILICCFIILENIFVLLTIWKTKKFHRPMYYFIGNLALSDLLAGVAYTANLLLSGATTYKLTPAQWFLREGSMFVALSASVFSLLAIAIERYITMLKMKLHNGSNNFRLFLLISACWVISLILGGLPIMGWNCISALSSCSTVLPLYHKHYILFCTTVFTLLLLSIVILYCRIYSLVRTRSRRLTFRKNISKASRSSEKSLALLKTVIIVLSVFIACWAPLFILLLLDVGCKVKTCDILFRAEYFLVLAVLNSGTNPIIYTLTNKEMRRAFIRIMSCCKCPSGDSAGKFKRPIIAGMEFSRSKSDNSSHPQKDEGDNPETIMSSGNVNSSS
Target sequence in this assay (P32121 whole entry partner, the tested form may be a part): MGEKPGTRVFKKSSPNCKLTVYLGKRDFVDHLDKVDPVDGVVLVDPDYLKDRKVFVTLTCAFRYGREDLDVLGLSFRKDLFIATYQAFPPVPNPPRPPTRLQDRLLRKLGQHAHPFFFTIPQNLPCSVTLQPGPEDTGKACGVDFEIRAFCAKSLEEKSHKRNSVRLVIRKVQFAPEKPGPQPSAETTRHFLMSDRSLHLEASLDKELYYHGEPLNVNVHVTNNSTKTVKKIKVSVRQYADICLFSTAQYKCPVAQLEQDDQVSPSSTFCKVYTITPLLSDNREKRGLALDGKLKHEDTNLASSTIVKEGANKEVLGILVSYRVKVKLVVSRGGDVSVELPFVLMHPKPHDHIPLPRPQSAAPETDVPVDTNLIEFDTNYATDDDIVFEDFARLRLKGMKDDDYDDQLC

Assay [2] has as its target T1, human sphingosine-1-phosphate receptor 1 (S1P1). In words: Inhibition of cAMP production (HTRF cAMP HiRange), S1P1 CHO-K1 cells. In kind it is cell-based. The conditions noted are these: for Emax: CHO-K1, efficacy normalized to maximum efficacy of fingolimod, read-out: hS1P1 CAMP SPAN; for EC50: read-out: hS1P1 CAMP pEC50 (converted). In outline: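 CHO-K1 cells co-expressing human S1P1 (C-terminal ProLink tag) and EA-β-arrestin2, plated overnight; after 30 min compound incubation at 37 °C, intracellular cAMP measured by HTRF TR-FRET following 1 h at room temperature. Values normalized to fingolimod.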
Target sequence in this assay (P21453 whole entry, the tested form may be a part): as the sequence (P21453 whole entry, the tested form may be a part) above
(Changes in cAMP serve as a functional read-out for many G protein-coupled receptors.)

The mark [3] stands for this setting: CHO-K1, β-arrestin2 recruitment.
[4] abbreviates: inhibition of cAMP production, potency.
[5] abbreviates: inhibition of cAMP production, S1P1.

Bounds are passed on as bounds.

On to `CSc1ccccc1-c1nc(-c2ccc3c(c2)nnn3C(C)C)no1` [Compound 276, 3-(1-isopropyl-1H-benzo[d][1,2,3]triazol-5-yl)-5-(2-(methylthio)phenyl)-1,2,4-oxadiazole], for which the Emax in assay [1] (setting [3]) and in assay [2] (inhibition of cAMP production) was > 75% throughout. Moreover, the EC50 in assay [1] (potency) is < 10000 nM; in assay [2] (setting [4]) it was < 316 nM.
Consider `COc1ccccc1-c1cnc(-c2ccc3c(c2)nnn3C(C)C)nc1` [Compound 565, 1-isopropyl-5-(5-(2-methoxyphenyl)pyrimidin-2-yl)-1H-benzo[d][1,2,3]triazole], for which the Emax in assay [1] (CHO-K1) and in assay [2] was > 75% each time. In addition, the EC50 in assay [1] (S1P1) was < 10000 nM; in assay [2] (setting [5]), < 316 nM.
On to `CCC1(CC)CC(=O)c2cc(-c3nc(-c4cccnc4F)no3)ccc2O1` [Compound 547, 2,2-diethyl-6-(3-(2-fluoropyridin-3-yl)-1,2,4-oxadiazol-5-yl)chroman-4-one], for which the Emax in assay [1] (CHO-K1) and in assay [2] was > 75% each time. Besides, the figures for the EC50 in assay [1] (S1P1) and in assay [2] (setting [5]) were < 10000 nM and < 316 nM, respectively.
Consider `COc1cccc(-c2csc(-c3ccc4c(ccn4C(C)C)n3)n2)c1` [Compound 410, 2-(1-isoproplpyrrolo[3,2-b]pyridin-5-yl)-4-(3-methoxyphenyl)thiazole], for which the Emax in assay [1] (CHO-K1) and in assay [2] was < 75% throughout. Moreover, the EC50 in assay [1] (S1P1) was > 10000 nM; in assay [2] (setting [5]), > 316 nM.
As to `CCC1(CC)CC(=O)c2cc(-c3nc(-c4ncccn4)no3)ccc2O1` [Compound 640, 2,2-diethyl-6-(3-(pyrimidin-2-yl)-1,2,4-oxadiazol-5-yl)chroman-4-one], the Emax in assay [1] (CHO-K1) is < 75%; in assay [2] it was > 75%. For the same compound, the EC50 in assay [1] (S1P1) is > 10000 nM; in assay [2] (setting [5]), > 316 nM.
The matching figures for `CC(C)(CO)Cn1nnc2cc(-c3noc(-c4cnccc4C(F)(F)F)n3)ccc21` [Compound 529, 2,2-dimethyl-3-(5-(5-(4-(trifluoro-methyl)pyridin-3-yl)-1,2,4-oxadiazol-3-yl)-1H-benzo[d][1,2,3]triazol-1-yl)propan-1-ol]: < 75%, > 75%, < 10000 nM and > 316 nM.
In the case of `COc1cccc(-c2csc(-c3ccc4c(ccn4C(C)C)c3)n2)c1` [Compound 405, 2-(1-isopropylindol-5-yl)-4-(3-methoxy-phenyl)thiazole], the Emax in assay [1] (CHO-K1) and in assay [2] was < 75% throughout. The EC50 is > 10000 nM in assay [1] (S1P1) and > 316 nM in assay [2] (setting [5]).
For `CC(C)n1nnc2cc(-c3nc(-c4ccccc4Cl)no3)ccc21` [Compound 17], the Emax in assay [1] (setting [3]) and in assay [2] (inhibition of cAMP production) was > 75% each time. Moreover, the EC50 in assay [1] (potency) is < 10000 nM; in assay [2] (setting [4]), < 316 nM.
Turning to `Cc1ccncc1-c1noc(-c2cnc3c(c2)nnn3C(C)C)n1` [Compound 414, 4-methyl-3-{5-[3-(propan-2-yl)-3H-[1,2,3]triazolo[4,5-b]pyridin-6-yl]-1,2,4-oxadiazol-3-yl}pyridine], the values for the Emax in assay [1] (CHO-K1) and in assay [2] were > 75% and < 75%, respectively. The EC50 was > 10000 nM in assay [1] (S1P1) and < 316 nM in assay [2] (setting [5]).
In the case of `CC(C)n1nnc2cc(-c3nc(-c4ccc(COc5ccccc5)cc4)no3)ccc21` [Compound 49, 5-{3-[4-(phenoxy-methyl)phenyl]-1,2,4-oxadiazol-5-yl}-1-(propan-2-yl)-1H-1,2,3-benzotriazole], the Emax in assay [1] (setting [3]) and in assay [2] (inhibition of cAMP production) was < 75% each time. Besides, the EC50 is > 10000 nM in assay [1] (potency) and > 316 nM in assay [2] (setting [4]).
Regarding `CC(C)(CO)n1nnc2cc(-c3noc(-c4ccncc4C(F)(F)F)n3)ccc21` [Compound 626, 2-methyl-2-(5-(5-(3-(trifluoro-methyl)pyridin-4-yl)-1,2,4-oxadiazol-3-yl)-1H-benzo[d] [1,2,3]triazol-1-yl)propan-1-ol], the Emax in assay [1] (CHO-K1) and in assay [2] was < 75% each time. Also, in assay [2] (setting [5]), the EC50 was > 316 nM.
In the case of `CCC1(CC)CC(=O)c2cc(-c3nc(-c4ccncn4)no3)ccc2O1` [Compound 639, 2,2-diethyl-6-(3-(pyrimidin-4-yl)-1,2,4-oxadiazol-5-yl)chroman-4-one], the Emax is > 75% in assay [1] (CHO-K1) and < 75% in assay [2]. For the same compound, the EC50 was > 10000 nM in assay [1] (S1P1) and > 316 nM in assay [2] (setting [5]).
Take `Cc1ccccc1-c1nc(-c2ccc3c(c2)nnn3C2CCCC2)no1` [Compound 162, 3-(1-cyclopentyl-1H-benzo[d][1,2,3]triazol-5-yl)-5-(o-tolyl)-1,2,4-oxadiazole]: the Emax in assay [1] (setting [3]) and in assay [2] (inhibition of cAMP production) was > 75% in each case. The EC50 was < 10000 nM in assay [1] (potency) and > 316 nM in assay [2] (setting [4]).
On to `Cc1cncc(-c2nc(-c3ccc4c(c3)nnn4C(C)C)no2)n1` [Compound 229, 3-(1-isopropyl-1H-benzo[d][1,2,3]triazol-5-yl)-5-(6-methyl-pyrazin-2-yl)-1,2,4-oxadiazole], for which the Emax in assay [1] (setting [3]) and in assay [2] (inhibition of cAMP production) was < 75% in each case. Further, the figures for the EC50 in assay [1] (potency) and in assay [2] (setting [4]) were < 10000 nM and > 316 nM, respectively.
Take `COc1cc(-c2noc(-c3ccc4c(c3)nnn4C3CC3)n2)ccn1` [Compound 155, 1-cyclopropyl-5-[3-(2-methoxypyridin-4-yl)-1,2,4-oxadiazol-5-yl]-1H-1,2,3-benzotriazole]: the Emax in assay [1] (setting [3]) and in assay [2] (inhibition of cAMP production) was < 75% throughout. For the same compound, the EC50 in assay [1] (potency) is > 10000 nM; in assay [2] (setting [4]) it was > 316 nM.
For `CC(C)n1nnc2cc(-c3nc(-c4ccc(-c5ccccc5)cn4)no3)ccc21` [Compound 9, 5-[3-(5-phenylpyridin-2-yl)-1,2,4-oxadiazol-5-yl]-1-(propan-2-yl)-1H-1,2,3-benzotriazole], the Emax in assay [1] (setting [3]) and in assay [2] (inhibition of cAMP production) was < 75% in each case. For the same compound, the figures for the EC50 in assay [1] (potency) and in assay [2] (setting [4]) were > 10000 nM and > 316 nM, respectively.
For the compound `CCC1(CC)CC(=O)c2cc(-c3nsc(-c4ccccc4OC)n3)ccc2O1` [Compound 222, 2,2-diethyl-6-(5-(2-methoxyphenyl)-1,2,4-thiadiazol-3-yl)chroman-4-one], the Emax in assay [1] (setting [3]) is < 75%; in assay [2] (inhibition of cAMP production) it was > 75%. Further, the EC50 in assay [1] (potency) was < 10000 nM; in assay [2] (setting [4]) it was > 316 nM.
Take `COc1cccc(-c2nc(-c3ccc4c(ccn4C(C)C)c3)ns2)c1` [Compound 366, 5-[5-(3-methoxyphenyl)-1,2,4-thiadiazol-3-yl]-1-(propan-2-yl)-1H-indole]: the Emax in assay [1] (setting [3]) and in assay [2] (inhibition of cAMP production) was < 75% in each case. In addition, the EC50 is > 10000 nM in assay [1] (potency) and > 316 nM in assay [2] (setting [4]).
For `CC(C)n1nnc2cc(-c3nc(-c4ccccc4F)co3)ccc21` [Compound 21, 5-[4-(2-fluorophenyl)-1,3-oxazol-2-yl]-1-(propan-2-yl)-1H-1,2,3-benzotriazole], the Emax in assay [1] (setting [3]) and in assay [2] (inhibition of cAMP production) was > 75% each time. The EC50 in assay [1] (potency) was > 10000 nM; in assay [2] (setting [4]), > 316 nM.
For `Cc1cc(C)cc(-c2noc(-c3ccc4c(c3)nnn4C3CCOCC3)n2)c1` [Compound 93, 5-[3-(3,5-dimethyl-phenyl)-1,2,4-oxadiazol-5-yl]-1-(oxan-4-yl)-1H-1,2,3-benzotriazole], the Emax in assay [1] (setting [3]) is > 75%; in assay [2] (inhibition of cAMP production) it was < 75%. Besides, the EC50 was > 10000 nM in assay [1] (potency) and > 316 nM in assay [2] (setting [4]).
Consider `CC(C)Nc1ccc(-c2nc(-c3ccc4c(c3)C(=O)NCC4)no2)cc1C#N` [Compound 514, 2-(isopropylamino)-5-(3-(l-oxo-1,2,3,4-tetra-hydroisoquinolin-7-yl)-1,2,4-oxadiazol-5-yl)benzonitrile], for which the Emax in assay [1] (CHO-K1) was < 75%; in assay [2] it was > 75%. For the same compound, the figures for the EC50 in assay [1] (S1P1) and in assay [2] (setting [5]) were < 10000 nM and < 316 nM, respectively.
Turning to `CC(C)n1ccc2cc(-c3noc(-c4cccnc4)n3)ccc21` [Compound 396, 3-(1-isopropyl-1H-indol-5-yl)-5-(pyridin-3-yl)-1,2,4-oxadiazole], the results for the Emax in assay [1] (CHO-K1) and in assay [2] were > 75% and < 75%, respectively. Also, the EC50 in assay [1] (S1P1) is > 10000 nM; in assay [2] (setting [5]), > 316 nM.
Consider `COc1ccccc1-c1noc(-c2ccc3[nH]ccc3c2)n1` [Compound 368, 5-(1H-indol-5-yl)-3-(2-methoxyphenyl)-1,2,4-oxadiazole], for which the Emax in assay [1] (setting [3]) and in assay [2] (inhibition of cAMP production) was < 75% in each case. Also, the EC50 in assay [1] (potency) was > 10000 nM; in assay [2] (setting [4]) it was > 316 nM.
For the compound `CCC1(CC)CC(=O)c2cc(-c3nc(-c4ccc5[nH]c(=O)[nH]c5c4)no3)ccc2O1` [Compound 539, 5-(5-(2,2-diethyl-4-oxochroman-6-yl)-1,2,4-oxadiazol-3-yl)-1H-benzo[d]imidazol-2(3H)-one], the Emax in assay [1] (CHO-K1) and in assay [2] was < 75% each time. Also, the EC50 is < 10000 nM in assay [1] (S1P1) and < 316 nM in assay [2] (setting [5]).
For the compound `N#Cc1cc(-c2nnc(-c3ccc4c(c3)CCC(=O)N4)o2)ccc1NCC1CC1` [Compound 475, 2-[(cyclopropyl-methyl)amino]-5-[5-(2-oxo-1,2,3,4-tetrahydroquinolin-6-yl)-1,3,4-oxadiazol-2-yl]benzonitrile], the values for the Emax in assay [1] (CHO-K1) and in assay [2] were < 75% and > 75%, respectively. The values for the EC50 in assay [1] (S1P1) and in assay [2] (setting [5]) were < 10000 nM and < 316 nM, respectively.
